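48-hour exposure; five concentrations; linearly interpolated endpoints. Abbreviation: GI50, concentration required for 50% inhibition of growth.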 Activity calls are given as the source filed them. Rule as the data show it: active = GI50 up to about 1.1 µM and inactive = higher.
How the values were obtained:
Assay in all cases: DTP human tumour cell line panel, 48 h
[1] = test system: NCI-H522
[2] = test system: LXFL 529
[3] = test system: TK-10
[4] = test system: OVCAR-8
[5] = test system: HT-29
[6] = test system: HCT-116
[7] = test system: K562
[8] = test system: SF-268
[9] = test system: KM12
[10] = test system: OVCAR-3
[11] = test system: HOP-62
[12] = test system: SK-MEL-2
[13] = test system: A549
[14] = test system: ACHN
[15] = test system: XF498
[16] = test system: DMS-273
[17] = test system: DMS-114
[18] = test system: SF-539
[19] = test system: RPMI-8226
[20] = test system: NCI-H226
[21] = test system: HOP-92
[22] = test system: HCC 2998
[23] = test system: UO-31
[24] = test system: UACC-62
[25] = test system: SN12C
[26] = test system: RXF 393
[27] = test system: CAKI-1
[28] = test system: MOLT-4
[29] = test system: LOX IMVI
[30] = test system: SNB-19
[31] = test system: CCRF-CEM
[32] = test system: IGROV-1
[33] = test system: HL-60
[34] = test system: KM-20L2
[35] = test system: DLD-1
[36] = test system: EKVX
[37] = test system: SK-OV-3
[38] = test system: SK-MEL-28
[39] = test system: SF-295
[40] = test system: SR
[41] = test system: HCT-15
[42] = test system: Malme-3M
[43] = test system: OVCAR-4
[44] = test system: M14
[45] = test system: COLO 205
[46] = test system: OVCAR-5
[47] = test system: SW-620
[48] = test system: NCI-H460
[49] = test system: M19-MEL
[50] = test system: SK-MEL-5
[51] = test system: HOP-18
[52] = test system: U-251
[53] = test system: 786-0
[54] = test system: A498
[55] = test system: NCI-H23

Measured: GI50

CC(/C=C/c1ncccc1OCCCCCC(=O)O)=N\NC1=NCCN1
inactive: [1] > 100 µM | [2] > 100 µM | [3] 65.3 µM | [4] > 100 µM | [5] > 100 µM | [6] > 100 µM | [7] > 100 µM | [8] > 100 µM | [9] > 100 µM | [10] > 100 µM | [11] > 100 µM | [12] > 100 µM | [13] > 100 µM | [14] > 100 µM | [15] > 100 µM | [16] > 100 µM | [17] > 100 µM | [18] > 100 µM | [19] > 100 µM | [20] > 100 µM | [21] > 100 µM | [22] > 100 µM | [23] > 100 µM | [24] > 100 µM | [25] > 100 µM | [26] 68.1 µM | [27] > 100 µM | [28] > 100 µM | [29] > 100 µM | [30] > 100 µM | [31] > 100 µM | [32] > 100 µM | [33] > 100 µM | [34] > 100 µM | [35] > 100 µM | [36] > 100 µM | [37] > 100 µM | [38] > 100 µM | [39] > 100 µM | [40] > 100 µM | [42] > 100 µM | [43] > 100 µM | [44] > 100 µM | [45] > 100 µM | [46] > 100 µM | [47] > 100 µM | [48] > 100 µM | [49] > 100 µM
> 100 µM: [41]

Cn1c2c(c3ccccc31)CCN(CCN1CCN(c3cccc(Cl)c3)CC1)C2=O
inactive: [1] 47.5 µM | [2] 49 µM | [3] > 100 µM | [4] > 100 µM | [5] 18.2 µM | [6] 40.5 µM | [7] 35.3 µM | [8] > 100 µM | [50] 23.6 µM | [11] > 100 µM | [13] > 100 µM | [14] > 100 µM | [15] 3.38 µM | [16] 49.5 µM | [17] 37.4 µM | [18] > 100 µM | [19] 21.6 µM | [51] > 100 µM | [21] 19.9 µM | [52] > 100 µM | [23] 30.3 µM | [24] 72.9 µM | [25] 32.1 µM | [26] 67.1 µM | [28] 43.8 µM | [29] 57.9 µM | [53] > 100 µM | [31] > 100 µM | [32] > 100 µM | [33] 15.9 µM | [34] 32.4 µM | [35] 20.7 µM | [36] > 100 µM | [37] > 100 µM | [38] > 100 µM | [54] > 100 µM | [44] 46 µM | [45] 40.7 µM | [47] 63.4 µM | [49] > 100 µM | [55] 35.8 µM
25.8 µM: [41]

Reference: ChEMBL document CHEMBL1201862, “PubChem BioAssay data set” (2004)
